The supplement of paper PMC10307832

Compound: CC1=C(C(=NN1)C)CC2=C(C3=C(S2)N(C(=O)N(C3=O)C)CC(C)C)C(=O)N4C[C@@H](CO4)O + O=C(CCCCCCC(=O)Nc1ccccc1)NO [Vorinostat] (partner 1 µM)
Assay: relative viability (nuclei count vs DMSO), 5 days (fraction); higher = more cells survive
Conditions: first compound 0.0025 µM
Procedure, shortened: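 Values are medians from duplicate plates. Each reflects relative viability, defined as the nuclei count of treated wells over that of vehicle wells. Lung cancer cell lines in 1536-well plates were pin-tool dosed one day after seeding with one drug alone or with a fixed anchor-drug dose plus five library-drug doses (not always all listed) in √10 steps, then fixed, stained and imaged at 4× after 5 days.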

Going from NCI-H727 to NCI-H1650, the relative viability falls from 1.16 to 0.529.

Going from NCI-H1993 to SW 1573, the relative viability falls from 1.03 to 0.795.

Compared with NCI-H838, LCLC-103H is higher in relative viability: 0.696 for the first, 0.871 for the second.

First: NCI-H520
Second: NCI-H2126
The relative viability of the first is lower: 0.678 for the first, 0.919 for the second.

Going from EMC-BAC-2 to NCI-H2085, the relative viability rises from 0.487 to 0.829.

First: HCC-366
Second: NCI-H1666
The relative viability of the first is lower: 0.438 for the first, 1.08 for the second.

Going from NCI-H596 to LK-2, the relative viability falls from 0.783 to 0.342.

Going from NCI-H2087 to NCI-H2342, the relative viability falls from 0.841 to 0.611.

First: SK-MES-1
Second: H3255
The relative viability of the first is higher: 1.19 for the first, 0.969 for the second.

Going from COR-L23 to COR-L 105, the relative viability rises from 0.499 to 0.89.

Compared with IA-LM, LOU-NH91 is higher in relative viability: 0.91 for the first, 1.03 for the second.

First: ChaGo-K-1
Second: NCI-H2170
The relative viability of the first is lower: 0.73 for the first, 0.82 for the second.

First: NCI-H2405
Second: HOP-62
The relative viability of the first is higher: 1.13 for the first, 0.575 for the second.

First: HCC-44
Second: SW 900
The relative viability of the first is higher: 1.08 for the first, 0.558 for the second.

Compared with LU99A, NCI-H1648 is higher in relative viability: 0.462 for the first, 0.787 for the second.

In the case of HCC-78, the relative viability is reported as 0.521.

Same assay, conditions: first compound 0.007906 µM

Going from NCI-H522 to NCI-H727, the relative viability rises from 1.03 to 1.25.

Going from NCI-H1650 to NCI-H1993, the relative viability rises from 0.583 to 0.664.

Compared with SW 1573, NCI-H838 is higher in relative viability: 0.714 for the first, 0.75 for the second.

Going from LCLC-103H to NCI-H520, the relative viability falls from 0.896 to 0.777.

Going from NCI-H2126 to EMC-BAC-2, the relative viability falls from 0.894 to 0.513.

Going from NCI-H2085 to HCC-366, the relative viability falls from 0.791 to 0.365.

First: NCI-H1666
Second: NCI-H596
The relative viability of the first is higher: 1.12 for the first, 0.652 for the second.

Going from LK-2 to NCI-H2087, the relative viability rises from 0.272 to 0.581.

First: NCI-H2342
Second: SK-MES-1
The relative viability of the first is lower: 0.766 for the first, 1.23 for the second.

First: H3255
Second: COR-L23
The relative viability of the first is higher: 0.716 for the first, 0.378 for the second.

First: COR-L 105
Second: IA-LM
The relative viability of the first is lower: 0.918 for the first, 1.19 for the second.

Compared with LOU-NH91, ChaGo-K-1 is lower in relative viability: 0.875 for the first, 0.811 for the second.

First: NCI-H2170
Second: NCI-H2405
The relative viability of the first is lower: 0.792 for the first, 1.07 for the second.

Going from HOP-62 to HCC-44, the relative viability rises from 0.895 to 1.12.

Compared with SW 900, LU99A is lower in relative viability: 0.55 for the first, 0.526 for the second.

Compared with NCI-H1648, HCC-78 is higher in relative viability: 0.413 for the first, 0.552 for the second.

Same assay, conditions: first compound 0.025 µM

Going from NCI-H522 to NCI-H727, the relative viability rises from 0.682 to 1.05.

Going from NCI-H1650 to NCI-H1993, the relative viability rises from 0.49 to 0.685.

Compared with SW 1573, NCI-H838 is lower in relative viability: 0.792 for the first, 0.691 for the second.

Compared with LCLC-103H, NCI-H520 is lower in relative viability: 0.792 for the first, 0.594 for the second.

Going from NCI-H2126 to EMC-BAC-2, the relative viability falls from 0.844 to 0.386.

First: NCI-H2085
Second: HCC-366
The relative viability of the first is higher: 0.78 for the first, 0.348 for the second.

Going from NCI-H1666 to NCI-H596, the relative viability falls from 1.03 to 0.625.

Compared with LK-2, NCI-H2087 is higher in relative viability: 0.208 for the first, 0.578 for the second.

Going from NCI-H2342 to SK-MES-1, the relative viability rises from 0.709 to 1.1.

Compared with H3255, COR-L23 is lower in relative viability: 0.821 for the first, 0.37 for the second.

First: COR-L 105
Second: LOU-NH91
The relative viability of the first is lower: 0.374 for the first, 0.939 for the second.

Compared with ChaGo-K-1, NCI-H2170 is higher in relative viability: 0.755 for the first, 0.779 for the second.

Going from NCI-H2405 to HOP-62, the relative viability falls from 0.849 to 0.496.

Going from HCC-44 to SW 900, the relative viability falls from 1.03 to 0.534.

First: LU99A
Second: NCI-H1648
The relative viability of the first is higher: 0.505 for the first, 0.42 for the second.

Work on HCC-78 yielded a relative viability of 0.497.

Same assay, conditions: first compound 0.07906 µM

First: NCI-H522
Second: NCI-H727
The relative viability of the first is lower: 0.551 for the first, 1.05 for the second.

Going from NCI-H1650 to NCI-H1993, the relative viability falls from 0.713 to 0.623.

Going from SW 1573 to NCI-H838, the relative viability rises from 0.679 to 0.777.

First: LCLC-103H
Second: NCI-H520
The relative viability of the first is higher: 0.772 for the first, 0.577 for the second.

Compared with NCI-H2126, EMC-BAC-2 is lower in relative viability: 0.84 for the first, 0.565 for the second.

Going from NCI-H2085 to HCC-366, the relative viability falls from 0.797 to 0.399.

Going from NCI-H1666 to NCI-H596, the relative viability falls from 1.04 to 0.697.

Going from LK-2 to NCI-H2087, the relative viability rises from 0.266 to 0.462.

Going from NCI-H2342 to SK-MES-1, the relative viability rises from 0.656 to 1.05.

First: H3255
Second: COR-L23
The relative viability of the first is higher: 0.844 for the first, 0.422 for the second.

First: COR-L 105
Second: IA-LM
The relative viability of the first is lower: 0.86 for the first, 0.942 for the second.

First: LOU-NH91
Second: ChaGo-K-1
The relative viability of the first is higher: 1.07 for the first, 0.725 for the second.

First: NCI-H2170
Second: NCI-H2405
The relative viability of the first is lower: 0.749 for the first, 0.96 for the second.

Going from HOP-62 to HCC-44, the relative viability rises from 0.631 to 1.05.

First: SW 900
Second: LU99A
The relative viability of the first is higher: 0.504 for the first, 0.46 for the second.

Going from NCI-H1648 to HCC-78, the relative viability rises from 0.406 to 0.518.

Same assay, conditions: first compound 0.25 µM

First: NCI-H522
Second: NCI-H727
The relative viability of the first is lower: 0.551 for the first, 1.13 for the second.

Compared with NCI-H1650, NCI-H1993 is higher in relative viability: 0.568 for the first, 0.711 for the second.

First: SW 1573
Second: NCI-H838
The relative viability of the first is higher: 0.782 for the first, 0.704 for the second.

Going from LCLC-103H to NCI-H520, the relative viability falls from 0.689 to 0.684.

First: NCI-H2126
Second: EMC-BAC-2
The relative viability of the first is higher: 0.674 for the first, 0.538 for the second.

Going from NCI-H2085 to HCC-366, the relative viability falls from 0.514 to 0.447.

Compared with NCI-H1666, NCI-H596 is lower in relative viability: 1.05 for the first, 0.479 for the second.

Compared with LK-2, NCI-H2087 is higher in relative viability: 0.301 for the first, 0.875 for the second.

First: NCI-H2342
Second: SK-MES-1
The relative viability of the first is lower: 0.644 for the first, 1.16 for the second.

Compared with H3255, COR-L23 is lower in relative viability: 0.854 for the first, 0.484 for the second.

Compared with COR-L 105, IA-LM is higher in relative viability: 0.744 for the first, 1.08 for the second.

First: LOU-NH91
Second: ChaGo-K-1
The relative viability of the first is higher: 1 for the first, 0.787 for the second.

First: NCI-H2170
Second: NCI-H2405
The relative viability of the first is lower: 0.864 for the first, 0.888 for the second.

Going from HOP-62 to HCC-44, the relative viability rises from 0.65 to 1.18.

Going from SW 900 to LU99A, the relative viability rises from 0.445 to 0.575.

Work on NCI-H1648 yielded a relative viability of 0.441.
